# In the supplement of paper PMC10307832:
# Columns and labels:
# Assay in all cases: relative viability (nuclei count vs DMSO), 5 days (fraction); higher = more cells survive
# [1] = compound: COc1cc2nc(N3CCCN(C)CC3)nc(NC3CCN(Cc4ccccc4)CC3)c2cc1OC + CC(=O)Nc1cccc(-n2c(=O)n(C3CC3)c(=O)c3c(Nc4ccc(I)cc4F)n(C)c(=O)c(C)c32)c1 [Trametinib] (partner 0.02 µM)
# Procedure, shortened: (§1)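 Relative viability was taken as the ratio of nuclei in treated wells to nuclei in vehicle wells. Lung cancer cell lines in 1536-well plates received compounds by pin tool one day after seeding, either one drug alone or a fixed anchor-drug dose plus five library-drug doses (not always all listed) in √10 steps. Nuclei were counted on 4× images after 5 days of treatment, and values are medians of duplicate plates.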
# [2] = compound: COc1cc2nc(N3CCCN(C)CC3)nc(NC3CCN(Cc4ccccc4)CC3)c2cc1OC + N=C(N)NC(=N)NCCc1ccccc1 [Phenformin] (partner 250 µM)
# Procedure, shortened: as §1
# AZD6482 + Bortezomib = compound: Cc1cc([C@@H](C)Nc2ccccc2C(=O)O)c2nc(N3CCOCC3)cc(=O)n2c1 [AZD6482] + CC(C)C[C@H](NC(=O)[C@H](Cc1ccccc1)NC(=O)c1cnccn1)B(O)O [Bortezomib] (partner 0.002 µM)
# Procedure, shortened: as §1
# AZD6482 + Vorinostat = compound: Cc1cc([C@@H](C)Nc2ccccc2C(=O)O)c2nc(N3CCOCC3)cc(=O)n2c1 [AZD6482] + O=C(CCCCCCC(=O)Nc1ccccc1)NO [Vorinostat] (partner 1 µM)
# Procedure, shortened: as §1
Cell Line,relative viability ([1]; first compound 0.2 µM),relative viability ([1]; first compound 0.6325 µM),relative viability ([1]; first compound 2 µM),relative viability ([1]; first compound 6.325 µM),relative viability ([2]; first compound 0.2 µM),relative viability ([2]; first compound 0.6325 µM),relative viability ([2]; first compound 2 µM),relative viability ([2]; first compound 6.325 µM),relative viability (AZD6482 + Bortezomib; first compound 0.08 µM),relative viability (AZD6482 + Bortezomib; first compound 0.253 µM),relative viability (AZD6482 + Bortezomib; first compound 0.8 µM),relative viability (AZD6482 + Bortezomib; first compound 2.53 µM),relative viability (AZD6482 + Bortezomib; first compound 8 µM),relative viability (AZD6482 + Vorinostat; first compound 0.08 µM),relative viability (AZD6482 + Vorinostat; first compound 0.253 µM),relative viability (AZD6482 + Vorinostat; first compound 0.8 µM),relative viability (AZD6482 + Vorinostat; first compound 2.53 µM),relative viability (AZD6482 + Vorinostat; first compound 8 µM)
NCI-H23,0.358,0.362,0.44,0.342,0.743,0.717,0.936,0.794,0.958,0.861,1.29,0.621,0.861,0.542,0.516,0.617,0.374,0.407
NCI-H322M,0.503,0.495,0.531,0.512,0.669,0.743,0.748,0.762,1.18,1.22,1.13,0.795,0.871,0.846,0.818,0.812,0.473,0.565
NCI-H441,0.366,0.532,0.422,0.33,0.821,0.859,1.03,0.85,0.617,0.481,0.595,0.357,0.449,0.854,0.788,0.741,,0.782
NCI-H460,0.13,0.16,0.107,0.0898,0.501,0.492,0.478,0.484,0.957,0.956,1.17,0.685,0.958,0.599,0.797,0.895,0.344,0.594
NCI-H520,0.744,0.637,0.674,0.176,0.558,0.7,0.499,0.252,0.489,0.223,0.481,,0.306,0.599,0.467,0.496,0.273,0.319
NCI-H596,0.748,0.765,0.822,0.655,0.724,0.756,0.696,0.798,0.988,0.95,0.946,1.01,0.985,0.464,0.555,0.732,0.691,0.556
NCI-H647,0.514,0.495,0.527,0.238,0.586,0.727,0.673,0.366,0.784,,0.777,0.582,0.771,0.63,0.55,0.473,0.41,0.619
NCI-H650,1.01,1.06,1,0.978,0.454,0.459,0.466,0.427,0.895,,0.927,0.424,0.57,0.464,0.489,0.372,0.256,0.301
NCI-H661,0.612,0.563,0.648,0.586,0.295,0.296,0.27,0.266,0.71,0.608,0.723,,0.622,0.794,0.825,0.914,0.736,0.846
NCI-H727,0.425,0.368,0.373,0.361,0.478,0.415,0.447,0.348,0.908,0.868,1.06,,0.887,1.1,1.11,1.17,,0.96
NCI-H838,0.536,0.556,0.532,0.391,0.769,0.776,0.576,0.502,0.629,0.498,0.793,0.602,0.622,0.631,0.701,0.664,0.54,0.538
NCI-H1355,0.419,0.458,0.433,0.385,0.485,0.46,0.508,0.463,1.06,1.06,1.16,0.874,1.03,0.446,0.541,0.674,0.447,0.407
NCI-H1437,0.492,0.515,0.527,0.325,0.261,0.329,0.326,0.297,0.466,0.385,0.592,0.484,0.374,0.955,0.921,0.997,0.738,0.468
NCI-H1650,0.576,0.601,0.499,0.511,0.494,0.612,0.379,0.369,0.192,,0.188,0.205,0.202,0.512,0.629,0.805,0.437,0.632
NCI-H1651,0.828,0.815,0.888,0.848,0.351,0.33,0.329,0.318,0.918,0.941,0.905,0.809,0.825,0.602,0.502,0.56,0.464,0.524
NCI-H1666,0.821,0.781,0.774,0.799,0.545,0.574,0.542,0.505,0.515,0.765,0.737,0.556,0.616,0.848,1.04,1.04,0.813,1.02
NCI-H1734,0.657,0.697,0.738,0.552,0.383,0.383,0.389,0.346,0.791,0.893,0.977,0.525,0.556,0.804,0.68,0.801,0.52,0.582
NCI-H1755,0.797,0.75,0.713,0.746,0.604,0.628,0.58,0.574,0.837,0.962,0.434,0.639,0.74,0.691,0.638,0.742,0.495,0.566
